Values after ≈ are worked out from the molar mass of the structure shown. Read-outs that look alike come from different tables or passages of the source.
Legend:
[1] = system: S. aureus; assay: Development of resistance following serial passage, S. aureus; assay type: cell-based; conditions: Staphylococcus aureus
Method: (§1) MRSi compound 5 (acetate salt), mupirocin and MRSi compound 5/mupirocin 1:1 combination were tested for development of resistance following serial passage using 19 isolates, including S. aureus, coagulase-negative staphylococci and S. pyogenes strains.

[2] = system: S. epidermidis; assay: Development of resistance following serial passage, S. epidermidis; assay type: cell-based; conditions: Staphylococcus epidermidis
Method: as §1

[3] = system: S. hemolyticus; assay: Development of resistance following serial passage, S. hemolyticus; assay type: cell-based
Method: as §1

[4] = system: E. faecium; assay: MIC against E. faecium; assay type: cell-based
Method: MRSi compound 5 alone and in combination with mupirocin was tested recent clinical isolates of E. faecalis (n=28) and E. faecium (n=23). Both the acetate salt and mupirocinate salts of MRSi compound 5 maintained potent activity against vancomycin-susceptible and—resistant enterococci (Tables 8, 9, and 10).

[5] = system: S. pyogenes; assay: Development of resistance following serial passage, S. pyogenes; assay type: cell-based; conditions: Streptococcus pyogenes
Method: as §1

[6] = system: S. aureus ATCC 29213 and 31-1334; assay: Selection of spontaneous resistant mutants (mutation frequency); assay type: cell-based, Staphylococcus aureus
Method: Approximately, 10^9 bacteria were plated onto Mueller-Hinton agar supplemented with 10% horse blood and containing various concentrations of the test compounds alone and in combination. After 24 and 48 hours of incubation at 35° C., the bacterial colonies were counted and the frequencies of mutation were determined relative to the total viable count of organisms that were plated. Resistant clones were re-plated once on plates containing the same concentration of agent that was used for the selection.

[7] = system: S. aureus RN4220 (pYH4-MRS); assay: Mode of action: MIC with MRS over-production; assay type: cell-based; conditions: S. aureus RN4220 (pYH4-MRS), +aTC (MRS over-expression)
Method: The strain expresses high levels of MRS upon the addition of 0.01 μg/mL of anyhdrotetracycline.

[8] = system: mupirocin-resistant S. aureus; conditions: cited from earlier work
[9] = recent clinical isolates of E. faecium, ALL (23)

Which MIC ([1]; ATCC29213, read-out: Final MIC after 20 passages, S. aureus ATCC 29213) does the source give for `C=C(F)c1sc(CNCCCNc2cc(=O)c3ccccc3[nH]2)c(C)c1Br` [MRSi Cmpd 5 acetate, N-(4-bromo-5-(1-fluorovinyl)-3-methylthiophen-2-ylmethyl)-N′-(1H-quinolin-4-one)propane-1,3-diamine] here?
Its MIC is 4 µg/mL.

And the MIC ([1]; ATCC29213, read-out: Initial MIC, S. aureus ATCC 29213)?
Its MIC is 0.06 µg/mL.

What about the MIC ([1]; ATCC43300, read-out: Final MIC after 20 passages, S. aureus ATCC 43300 (ORSA)) of the same molecule?
The MIC was 1 µg/mL.

What about the MIC ([1]; ATCC43300, read-out: Initial MIC, S. aureus ATCC 43300 (ORSA)) of the same molecule?
The MIC was 0.06 µg/mL.

What about the MIC ([1]; NRS103, read-out: Final MIC after 20 passages, S. aureus NRS103 (ORSA)) of the same molecule?
Its MIC is 1 µg/mL.

And the MIC ([1]; NRS103, read-out: Initial MIC, S. aureus NRS103 (ORSA))?
The MIC was 0.12 µg/mL.

What about the MIC ([1]; NRS107, read-out: Final MIC after 20 passages, S. aureus NRS107 (HL-MupR)) of the same molecule?
Its MIC is 0.5 µg/mL.

And the MIC ([1]; NRS107, read-out: Initial MIC, S. aureus NRS107 (HL-MupR))?
The MIC was 0.015 µg/mL.

What about the MIC ([1]; read-out: Final MIC after 20 passages, S. aureus 10-420 (HL-MupR)) of the same molecule?
Its MIC is 8 µg/mL.

What about the MIC ([1]; read-out: Final MIC after 20 passages, S. aureus 25-670 (HL-MupR)) of the same molecule?
Its MIC is 8 µg/mL.

And the MIC ([1]; read-out: Final MIC after 20 passages, S. aureus 31-1334 (LL-MupR))?
The MIC was 8 µg/mL.

And the MIC ([1]; read-out: Final MIC after 20 passages, S. aureus 87-2797 (HL-MupR))?
The MIC was 16 µg/mL.

And the MIC ([1]; read-out: Final MIC after 20 passages, S. aureus 1079077 (ORSA))?
Its MIC is 16 µg/mL.

What about the MIC ([1]; read-out: Final MIC after 20 passages, S. aureus 1079101 (HL-MupR)) of the same molecule?
Its MIC is 16 µg/mL.

What about the MIC ([1]; read-out: Final MIC after 20 passages, S. aureus LZ6 (HL-MupR)) of the same molecule?
Its MIC is 2 µg/mL.

What about the MIC ([1]; read-out: Initial MIC, S. aureus 1079077 (ORSA)) of the same molecule?
The MIC was 0.25 µg/mL.

And the MIC ([2]; NRS8, read-out: Initial MIC, S. epidermidis NRS8 (LL-MupR))?
Its MIC is 0.06 µg/mL.

And the MIC ([2]; read-out: Final MIC after 20 passages, S. epidermidis 936528 (HL-MupR))?
The MIC was 0.5 µg/mL.

What about the MIC ([2]; read-out: Final MIC after 20 passages, S. epidermidis 936606 (Oxa-R)) of the same molecule?
Its MIC is 16 µg/mL.

What about the MIC ([2]; read-out: Initial MIC, S. epidermidis 936528 (HL-MupR)) of the same molecule?
The MIC was 0.03 µg/mL.

And the MIC ([2]; read-out: Initial MIC, S. epidermidis 936606 (Oxa-R))?
The MIC was 0.06 µg/mL.

What about the MIC ([3]; NRS116, read-out: Final MIC after 20 passages) of the same molecule?
Its MIC is 16 µg/mL.

What about the MIC ([3]; NRS116, read-out: Initial MIC) of the same molecule?
Its MIC is 0.12 µg/mL.

What about the MIC50 ([4]; E. faecium, Van-R(12)) of the same molecule?
Its MIC50 is under 0.004 µg/mL.

And the MIC90 ([4]; E. faecium, Van-R(12))?
Its MIC90 is under 0.004 µg/mL.

What about the Mode (MIC) ([4]; E. faecium, Van-R(12)) of the same molecule?
Its Mode (MIC) is under 0.004 µg/mL.

What about the “Range (MIC)” value ([4]; E. faecium, Van-R(12), in µg/mL) of the same molecule?
Its value is <0.004-0.03.

What about the MIC50 ([4]; E. faecium, Van-S (11)) of the same molecule?
Its MIC50 is “≦0.004”.

What about the MIC90 ([4]; E. faecium, Van-S (11)) of the same molecule?
Its MIC90 is “≦0.004”.

What about the “Mode (MIC)” value ([4]; E. faecium, Van-S (11)) of the same molecule?
Its value is “≦0.004”.

What about the “Range (MIC)” value ([4]; E. faecium, Van-S (11)) of the same molecule?
The value was “≦0.004”.

What about the MIC50 [4, 9] of the same molecule?
The MIC50 was under 0.004 µg/mL.

What about the MIC90 [4, 9] of the same molecule?
The MIC90 was under 0.004 µg/mL.

And the Mode (MIC) [4, 9]?
The Mode (MIC) was under 0.004 µg/mL.

And the “Range (MIC)” value ([4]; recent clinical isolates of E. faecium, ALL (23), in µg/mL)?
Its value is <0.004-0.03.

What about the MIC ([5]; ATCC19615, read-out: Final MIC after 20 passages) of the same molecule?
The MIC was 1 µg/mL.

And the MIC ([5]; read-out: Final MIC after 20 passages)?
Its MIC is 1 µg/mL.

For `C/C(=C\C(=O)OCCCCCCCCC(=O)O)C[C@@H]1OC[C@H](C[C@@H]2O[C@H]2[C@@H](C)[C@H](C)O)[C@@H](O)[C@H]1O` [Mupirocin, Pseudomonic acid A], which “Mutation Frequency (48 hours)” value ([6]; S. aureus 31-1334 (low level mupirocin-resistant), selecting concentration 2 x MIC) is on record?
Its value is 1.8 × 10^−8.

And the “Mutation Frequency (48 hours)” value ([6]; S. aureus 31-1334 (low level mupirocin-resistant), selecting concentration 4 x MIC)?
The value was 2 × 10^−9.

What about the “Mutation Frequency (48 hours)” value ([6]; S. aureus 31-1334 (low level mupirocin-resistant), selecting concentration 8 x MIC) of the same molecule?
Its value is <1 × 10^−9.

What about the “Mutation Frequency (48 hours)” value ([6]; S. aureus ATCC 29213 (mupirocin susceptible), selecting concentration 2 x MIC) of the same molecule?
Its value is 1.25 × 10^−7.

What about the “Mutation Frequency (48 hours)” value ([6]; S. aureus ATCC 29213 (mupirocin susceptible), selecting concentration 4 x MIC) of the same molecule?
Its value is 1.01 × 10^−7.

And the “Mutation Frequency (48 hours)” value ([6]; S. aureus ATCC 29213 (mupirocin susceptible), selecting concentration 8 x MIC)?
The value was 2.57 × 10^−8.

What about the MIC [7] of the same molecule?
The MIC was 0.06 µg/mL (≈ 0.12 µM).

And the “MICs, high level resistance (mupA)” value ([8]; high level mupirocin resistance, plasmid-encoded IRS enzyme)?
Its value is over 512 µg/mL.

What about the “MIC's, low level resistance” value ([8]; low level mupirocin resistance (mutations in chromosomal isoleucyl tRNA synthetase)) of the same molecule?
Its value is 8 to 256 µg/mL.

And the MIC50 ([4]; E. faecium, Van-R(12))?
Its MIC50 is 1 µg/mL.

And the MIC90 ([4]; E. faecium, Van-R(12))?
Its MIC90 is over 8 µg/mL.

What about the Mode (MIC) ([4]; E. faecium, Van-R(12)) of the same molecule?
Its Mode (MIC) is 1 µg/mL.

And the MIC50 ([4]; E. faecium, Van-S (11))?
Its MIC50 is 1 µg/mL.

And the MIC90 ([4]; E. faecium, Van-S (11))?
Its MIC90 is 1 µg/mL.

And the Mode (MIC) ([4]; E. faecium, Van-S (11))?
Its Mode (MIC) is 1 µg/mL.

And the “Range (MIC)” value ([4]; E. faecium, Van-S (11), in µg/mL)?
Its value is 0.25-1.

And the MIC ([4]; Enterococcus faecium, ATCC33667, Table 8, E. faecium ATCC 33667, read-out: MIC)?
Its MIC is 1 µg/mL.

What about the MIC50 [4, 9] of the same molecule?
The MIC50 was 1 µg/mL.

What about the MIC90 [4, 9] of the same molecule?
The MIC90 was over 8 µg/mL.

What about the Mode (MIC) [4, 9] of the same molecule?
The Mode (MIC) was 1 µg/mL.

— patent publication US20040224981A1, “Antibacterial methods and compositions” (priority 2003, published 2004)
